Measurements as given in patent publication US8552048B2, “Phosphoramidate alkylator prodrugs for the treatment of cancer” (Threshold Pharmaceuticals, Inc., priority 2006, dated 2013).
“And” between values parts separate entries of the source, which are not always exact repeats. Identical values can stand only once. “Also recorded” adds a separate entry of the source. Like-named read-outs stand apart in the source and are kept apart here.

Assays:
[1] = Repeat dose GLP study with dogs; type: in vivo
Source text: (§1) These changes were reversible.

[2] = GLP multiple-dose toxicity study in rats; type: in vivo
Method: (§2) Each rat received a 30 minute infusion once a week for three weeks (Q7D×3).

[3] = Pharmacokinetics in nude mice; type: in vivo; settings: female, mouse, plasma
[4] = Pharmacokinetics in cynomolgus monkeys (20 mg/kg i.v.); type: in vivo; settings: for Vd: read-out: Vss
Method: (§3) Pharmacokinetic studies were performed in male CD-1 (50 mg/kg i.p. or orally (p.o.)) or female nude mice (50 mg/kg i.v. or i.p.), male Sprague-Dawley rats (1, 5, 20 and 50 mg/kg i.v. and 100 mg/kg, p.o.), beagle dogs (20 mg/kg, i.v.) and cynomologus monkeys (20 mg/kg i.v.). Plasma TH302 concentrations were analyzed using a LC/MS method and the pharmacokinetic parameters computed using a noncompartmental method. Interspecies scaling was performed according to standard methods.
Individual and mean pharmacokinetic parameters of TH302 following intravenous administration at a dose of 20 mg/kg (N=3) is shown in Table 7.

[5] = tested on: H460 xenograft tumor; assay: H460 xenograft, TH302 in combination with X-ray radiation; type: in vivo, mice; settings: X-ray 1.2 Gy/day for 5 days with TH302 ip 75 mg/kg per day for 5 days, 30 min after each radiation dose; 75 mg/kg/day
Method: H460 xenograft tumor bearing mice were treated with X-ray radiation (one cycle of 1.2 Gy/day for 5 days) alone and in combination with TH302 (administered ip, 75 mg/kg per day for 5 consecutive days 30 min after each radiation dose). […] The oxygen radicals involved in killing tumor cells, and which are generated by irradiation of oxygen e.g. under normoxic conditions, can not form efficiently under hypoxic conditions.

[6] = Pharmacokinetics after repeated administration (Q7D×3) to rats; type: in vivo; settings: rat, plasma; for clearance / AUC / Cmax / half-life / Vd: iv, TH302 in rats; for AUC: read-out: AUC; for Cmax: read-out: Cmax; for half-life: read-out: Half-Life (converted); for Vd: read-out: Vss
Method: as §2
Br-IPM being capable of reacting with water and a number of other nucleophiles, for HPLC analysis of Br-IPM, the plasma obtained was frozen and treated with NaF and potassium oxalate.

[7] = Pharmacokinetics after repeated administration (Q7D×3) to dogs; type: in vivo; settings: dog; for clearance / half-life / AUC / Cmax / Vd: TH302 in dogs; for half-life: read-out: Half-Life (converted); for Cmax: read-out: Cmax; for Vd: read-out: Vss
Source text: as §1

[8] = tested on: PC-3 human prostate tumor; assay: GFP PC3 prostate orthotopic model; type: in vivo, mice
[9] = Single-dose toxicity in rats; type: in vivo
Method: A single-dose of TH302 was administered to rats and dogs over 30 min in order to achieve a rapid increase to relatively high drug levels. Rats were administered 50, 100, and 200 mg/kg, and dogs at 8, 16 and 32 mg/kg of TH302. […] These changes at the lowest toxicity level were fully reversible within 2 weeks.

[10] = Pharmacokinetics in CD-1 mice; type: in vivo; settings: male, CD-1, mouse, plasma, ip, 50 mg/kg, 50 mg/kg i.p., read-out: terminal half-lives (t1/2)
Method: as §3

[11] = Biodistribution by whole body autoradiography; type: in vivo, male Sprague Dawley rats; settings: rats, [^14C] TH302 50 mg/kg single i.v. bolus
Method: TH302 to rats. Five male Sprague Dawley rats were assigned to one dose group. Non-radiolabeled TH302 (0.06 g) was weighed into an appropriate formulation bottle, a solution of 153 μL of [^14C] TH302 was measured and transferred to the formulation bottle, followed by the addition of 6.85 mL of 50 PEG400 in saline. The resulting formulation was cold-sterilized by filtration through a 0.22 μm mesh size commercial filter. The dosing formulation was kept at ambient temperature and in the dark pending dose administration. Animals were administered radiolabelled TH302 by intravenous injection of the formulation at a dose of 50 mg/kg wherein a radioactivity of about 100 μCi was administered. Following administration of TH302, the animals were sacrificed at selected time-points and carcasses were flash-frozen and processed for sectioning. A series of sagittal and para-sagittal sections were obtained from each carcass and were exposed to highly sensitive film until adequate imprinting of radioactivity was obtained. The pictures obtained were analyzed semi-quantitatively using computerized densitometry.

[12] = cynomolgus monkey, plasma, iv, 20 mg/kg, cynomolgus monkeys, Mean (N=3)
[13] = cynomolgus monkey, plasma, iv, 20 mg/kg, monkeys
[14] = cynomolgus monkeys, individual animals, 20 mg/kg
[15] = in vivo, 16 mg/kg Q7D×3, Day 15
[16] = plasma, intravenous, 4 mg/kg Q7D×3, Day 15
[17] = plasma, intravenous, 8 mg/kg Q7D×3, Day 15
[18] = plasma, intravenous, 16 mg/kg Q7D×3, Day 15

Cn1c(COP(=O)(NCCBr)NCCBr)cnc1[N+](=O)[O-] [TH302]
human equivalent dose of the minimally toxic dose ([1]; 8 mg/kg dog dose divided by 1.8): about 4.5 mg/kg | minimally toxic dose ([1]; dog): 8 mg/kg | bone marrow finding at the high dose level ([1]; dogs, 16 mg/kg repeat dose): hypocellularity was also reported in the bone marrow | hematologic findings ([1]; dogs, 4, 8, and 16 mg/kg repeat dose, particularly at the high dose level): leucopenia and neutropenia were evident | reversibility of changes ([1]; dogs, repeat dose): reversible | human equivalent dose of the minimally toxic dose ([2]; 25 mg/kg rat dose divided by 6.2): about 4 mg/kg | minimally toxic dose ([2]; rat): 25 mg/kg | histopathology at the highest dose ([2]; rats, 50 mg/kg Q7D×3): effects on the bone marrow and the tongue with minor effects on the kidney and the uterus | primary toxicities ([2]; rats, 12.5, 25 and 50 mg/kg, 30 minute infusion Q7D×3): hematologic in nature and were reversible | Vd ([3]; intravenous, 50 mg/kg, read-out: apparent steady-state volume of distribution (Vss)): 0.542 L/kg | clearance ([3]; intravenous, 50 mg/kg, read-out: total body clearance (Cl) (converted)): 72.8 mL/min/kg | half-life ([3]; iv, 50 mg/kg i.v.): 8.2 min | half-life ([3]; po, 50 mg/kg p.o. (so in the source)): 9.7 min | AUC(0-t) [4, 12]: 3140 ng·h/mL | clearance [4, 12]: 128 mL/min/kg | Cmax ([4]; cynomolgus monkey, plasma, iv, 20 mg/kg, cynomolgus monkeys, Mean (N=3), read-out: Cmax): 20700 ng/mL | MRT ([4]; cynomolgus monkey, plasma, iv, 20 mg/kg, cynomolgus monkeys, Mean (N=3), read-out: MRT): 19.8 min | Vd [4, 12]: 2.92 L/kg | Cmax ([4]; cynomolgus monkey, plasma, iv, 20 mg/kg, cynomolgus monkeys, individual animals, read-out: Cmax): 15900 ng/mL | MRT ([4]; cynomolgus monkey, plasma, iv, 20 mg/kg, cynomolgus monkeys, individual animals, read-out: MRT): 28.6 min | clearance [4, 13]: 128 mL/min/kg | Vd [4, 13]: 2.92 L/kg | Tmax ([4]; cynomolgus monkey, plasma, iv, cynomolgus monkeys, individual animals): 1.98 min | half-life ([4]; cynomolgus monkey, plasma, iv, monkeys, read-out: Plasma t1/2): 24.9 min | Vβ ([4]; cynomolgus monkeys, Mean (N=3)): 6.17 L/kg | half-life ([4]; cynomolgus monkeys, Mean (N=3)): 24.9 min | AUClast [4, 14]: 1519 ng·h/mL and 3961 ng·h/mL and 3932 ng·h/mL | Cl [4, 14]: 217 mL/min/kg and 81.7 mL/min/kg and 84.5 mL/min/kg | Cmax [4, 14]: 28500 ng/mL and 17600 ng/mL | MRT [4, 14]: 14.7 min and 16.1 min | Vss [4, 14]: 6.18 L/kg and 1.20 L/kg and 1.36 L/kg | Vβ [4, 14]: 15.5 L/kg and 1.37 L/kg and 1.65 L/kg | half-life [4, 14]: 49.6 min and 11.6 min and 13.6 min | effect on anti tumor efficacy of radiation [5]: enhances the anti cancer effect of X-ray; also recorded: enhances the anti tumor efficacy of radiation | AUC at 15 day ([6]; intravenous, rats, 25 mg/kg dose of TH302, read-out: drug exposure, AUC of TH302): ~2110 ng·h/mL | clearance ([6]; 12.5 mg/kg Q7D×3, Day 15): 293 mL/min/kg | AUC ([6]; 12.5 mg/kg Q7D×3, Day 15): 699 ng·h/mL | Cmax ([6]; 12.5 mg/kg Q7D×3, Day 15): 1210 ng/mL | half-life ([6]; 12.5 mg/kg Q7D×3, Day 15): 16 min | Vd ([6]; 12.5 mg/kg Q7D×3, Day 15): 8.71 L/kg | clearance ([6]; 25 mg/kg Q7D×3, Day 15): 275 mL/min/kg | AUC ([6]; 25 mg/kg Q7D×3, Day 15): 2110 ng·h/mL | Cmax ([6]; 25 mg/kg Q7D×3, Day 15): 3640 ng/mL | half-life ([6]; 25 mg/kg Q7D×3, Day 15): 18.7 min | Vd ([6]; 25 mg/kg Q7D×3, Day 15): 8.28 L/kg | clearance ([6]; 50 mg/kg Q7D×3, Day 15): 197 mL/min/kg | AUC ([6]; 50 mg/kg Q7D×3, Day 15): 3250 ng·h/mL | Cmax ([6]; 50 mg/kg Q7D×3, Day 15): 5720 ng/mL | half-life ([6]; 50 mg/kg Q7D×3, Day 15): 20.8 min | Vd ([6]; 50 mg/kg Q7D×3, Day 15): 5.84 L/kg | clearance ([7]; in vivo, 4 mg/kg Q7D×3, Day 15): 80.7 mL/min/kg | half-life ([7]; in vivo, 4 mg/kg Q7D×3, Day 15): 16.3 min | clearance ([7]; in vivo, 8 mg/kg Q7D×3, Day 15): 72.5 mL/min/kg | half-life ([7]; in vivo, 8 mg/kg Q7D×3, Day 15): 15.2 min | AUC [7, 15]: 4260 ng·h/mL | clearance [7, 15]: 63.7 mL/min/kg | half-life [7, 15]: 17 min | AUC [7, 16]: 853 ng·h/mL | Cmax [7, 16]: 1580 ng/mL | Vd [7, 16]: 2.1 L/kg | AUC [7, 17]: 1910 ng·h/mL | Cmax [7, 17]: 3650 ng/mL | Vd [7, 17]: 1.78 L/kg | Cmax [7, 18]: 7100 ng/mL | Vd [7, 18]: 1.93 L/kg | AUC at 15 day ([7]; plasma, intravenous, dogs, 8 mg/kg dose of TH302, read-out: drug exposure (AUC of TH302)): ~1910 ng·h/mL | reduction in tumor volume ([8]; compared to final measurements in the vehicle group (day 31)): 84% | tumor growth delay (TGD) ([8]; single agent, Taxotere 12 mg/kg once a week for two weeks): 16 days | affected organs at the highest dose level ([9]; 200 mg/kg single dose): bone marrow, kidney, thymus and intestine | lethality ([9]; single dose over 30 min, highest dose 200 mg/kg): lethality was observed | primary findings at the lowest toxicity level ([9]; single dose study): reduction in white blood cell counts accompanied only by moderate weight loss in male rats | time to full reversal of changes at the lowest toxicity level ([9]; single dose study): ≤ 2 weeks | species specific toxicity at the highest dose ([9]; single dose, 200 mg/kg): rat adipose and spleen | half-life [10]: 7.9 min | distribution of radioactivity [11]: associated with the gastro-intestinal (GI) tract, its contents, and the kidney
